{"source": "patent US20090181889A1", "about": "“COMPOSITIONS AND METHODS FOR DETECTION AND TREATMENT OF HUMAN HERPESVIRUS (HHV)-6” (priority 2006, published 2009)", "molecules": {"B1": {"name": "Lymphotactin: chemokine ligand (protein)", "chain": "VGSEVSDKRTCVSLTTQRLPVSRIKTYTITEGSLRAVIFITKRGLKVCADPQATWVRDVVRSMDRKSNTRNNMIQTKPTGTQQSTNTAVTLTG"}}, "key": {"[1]": {"test_system": "wild-type 293 cells (HEK 293 cell membranes)", "experiment": "[35S]GTPγS binding to native (wild-type) HEK293 cell membranes", "type": "biochemical, human", "conditions": "binding without compound = 100%, three experiments"}, "HHV-6B U51 [2]": {"biological_target": "T1, HHV-6B U51 (Human herpesvirus 6B, UniProt P52542)", "type": "biochemical", "conditions": "HHV-6B U51 HEK293 membranes; for % Control [35S]GTPγS binding ± SEM, U51 (+Tet): induced with 1 μg/ml tetracycline 24 h; for % Control [35S]GTPγS binding ± SEM, U51 (Unind): no tetracycline (uninduced)"}, "[3]": {"test_system": "human μ, δ, or κ opioid receptor", "experiment": "[35S]GTPγS binding to control CHO cell membranes with opioid receptors", "type": "biochemical", "conditions": "CHO cells stably transfected with human μ, Emax obtained at opioid concentration less than 1 μM"}, "[4]": {"test_system": "herpesviruses serine proteases", "conditions": "cited from earlier work"}, "HHV-6B U51 [5]": {"biological_target": "T1, HHV-6B U51", "type": "binding"}, "U51": {"biological_target": "T2, U51 (Human herpesvirus 6A, UniProt P52382)", "T2 sequence (P52382 1-301)": "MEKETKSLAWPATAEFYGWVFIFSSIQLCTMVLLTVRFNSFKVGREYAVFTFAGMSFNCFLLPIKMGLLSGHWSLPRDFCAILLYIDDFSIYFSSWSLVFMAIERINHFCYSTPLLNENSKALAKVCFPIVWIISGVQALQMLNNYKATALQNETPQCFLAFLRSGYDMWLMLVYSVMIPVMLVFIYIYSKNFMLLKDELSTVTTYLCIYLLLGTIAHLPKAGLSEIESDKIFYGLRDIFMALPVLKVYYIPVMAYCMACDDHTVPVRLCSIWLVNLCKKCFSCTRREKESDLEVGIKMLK", "conditions": "Fitzsimons C P, et al. 2005; cited from earlier work"}, "HHV-6B U51 [6]": {"biological_target": "T3, HHV-6B U51 (Human herpesvirus 6B, UniProt P52542)", "T3 sequence (P52542 whole entry, looked up)": "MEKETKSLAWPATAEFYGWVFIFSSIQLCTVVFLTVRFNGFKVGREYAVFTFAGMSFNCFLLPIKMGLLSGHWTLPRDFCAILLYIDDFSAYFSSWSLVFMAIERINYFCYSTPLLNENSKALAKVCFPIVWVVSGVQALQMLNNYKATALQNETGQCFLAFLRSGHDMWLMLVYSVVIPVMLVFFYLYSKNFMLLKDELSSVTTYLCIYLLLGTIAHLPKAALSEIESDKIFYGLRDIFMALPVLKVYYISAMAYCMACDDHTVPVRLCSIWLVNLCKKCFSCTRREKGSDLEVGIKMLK", "type": "biochemical", "conditions": "HHV-6B U51 HEK293 membranes; for % Control [35S]GTPγS binding ± SEM, U51 (+Tet): induced with 1 μg/ml tetracycline 24 h; for % Control [35S]GTPγS binding ± SEM, U51 (Unind): no tetracycline (uninduced)", "remark": "listed apart in the source"}, "HHV-6 U51": {"biological_target": "T4, HHV-6 U51 (Human herpesvirus 6A, UniProt P52382)", "T4 sequence (P52382 1-301)": "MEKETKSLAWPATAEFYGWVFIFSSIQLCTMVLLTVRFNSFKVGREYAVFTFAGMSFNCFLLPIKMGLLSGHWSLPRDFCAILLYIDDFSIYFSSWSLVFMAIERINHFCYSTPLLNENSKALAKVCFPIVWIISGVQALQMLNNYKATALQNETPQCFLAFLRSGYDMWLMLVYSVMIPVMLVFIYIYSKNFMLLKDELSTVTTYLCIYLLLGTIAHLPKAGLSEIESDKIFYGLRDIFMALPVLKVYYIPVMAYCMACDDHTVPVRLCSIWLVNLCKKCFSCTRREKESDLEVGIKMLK", "conditions": "Beisser, et al. 1998; cited from earlier work"}, "HEK293 cells": {"test_system": "HEK293 cells", "type": "cell-based, human"}}}
{"molecule": "C[C@@H](NC(=O)[C@@H](N)Cc1ccc(O)cc1)C(=O)NCC(=O)N(C)[C@@H](Cc1ccccc1)C(=O)NCCO", "note": "[DAMGO]", "values": [{"measurement": "% Control [35S]GTPγS binding ± SEM, Native", "setting": "[1]", "value": "106 ± 4", "unit": "%"}, {"measurement": "% Control [35S]GTPγS binding ± SEM, U51 (+Tet)", "setting": "HHV-6B U51 [2]", "value": "86 ± 6", "unit": "%"}, {"measurement": "% Control [35S]GTPγS binding ± SEM, U51 (Unind)", "setting": "HHV-6B U51 [2]", "value": "96 ± 3", "unit": "%"}, {"measurement": "Control Cell Emax, % Control [35S]GTPγS binding ± SEM", "setting": "[3]", "value": "216 ± 4.4", "unit": "%"}]}
{"molecule": "CC(C)[C@H](NC(=O)[C@H](CCC(=O)O)NC(=O)[C@H](Cc1ccccc1)NC(=O)[C@@H](C)NC(=O)[C@@H](N)Cc1ccc(O)cc1)C(=O)N[C@H](C(=O)NCC(N)=O)C(C)C", "note": "[Deltorphin II]", "values": [{"measurement": "% Control [35S]GTPγS binding ± SEM, U51 (+Tet)", "setting": "HHV-6B U51 [2]", "value": "91 ± 6", "unit": "%"}, {"measurement": "% Control [35S]GTPγS binding ± SEM, U51 (Unind)", "setting": "HHV-6B U51 [2]", "value": "98 ± 2", "unit": "%"}]}
{"molecule": "CN1CC[C@]23c4c5ccc(O)c4O[C@H]2[C@@H](O)C=C[C@H]3[C@H]1C5", "note": "[Morphine, morphine]", "values": [{"measurement": "% Control [35S]GTPγS binding ± SEM, Native", "setting": "[1]", "value": "99 ± 9", "unit": "%"}, {"measurement": "% Control [35S]GTPγS binding ± SEM, U51 (+Tet)", "setting": "HHV-6B U51 [2]", "value": "91 ± 9", "unit": "%"}, {"measurement": "% Control [35S]GTPγS binding ± SEM, U51 (Unind)", "setting": "HHV-6B U51 [2]", "value": "99 ± 0.9", "unit": "%"}]}
{"molecule": "Oc1ccc2c3c1O[C@H]1c4[nH]c5ccccc5c4C[C@@]4(O)[C@@H](C2)N(CC2CC2)CC[C@]314", "note": "[Naltrindole, naltrindole]", "values": [{"measurement": "% Control [35S]GTPγS binding ± SEM, Native", "setting": "[1]", "value": "96 ± 4", "unit": "%"}, {"measurement": "% Control [35S]GTPγS binding ± SEM, U51 (+Tet)", "setting": "HHV-6B U51 [2]", "value": "97 ± 4", "unit": "%"}, {"measurement": "% Control [35S]GTPγS binding ± SEM, U51 (Unind)", "setting": "HHV-6B U51 [2]", "value": "98 ± 4", "unit": "%"}]}
{"molecule": "O=S(=O)(F)Cc1ccccc1", "note": "[PMSF, phenylmethylsulphonyi fluoride]", "values": [{"measurement": "inhibition of herpesvirus serine proteases", "setting": "[4]", "value": "weakly inhibited"}]}
{"molecule": "C[C@@H](NC(=O)[C@@H](N)Cc1ccc(O)cc1)C(=O)NCC(=O)N(C)[C@@H](Cc1ccccc1)C(=O)NCCO", "note": "[[^3H]DAMGO]", "values": [{"measurement": "specific binding of radiolabelled opioid to HHV-6B U51 membranes", "setting": "HHV-6B U51 [5]", "value": "did not specifically bind"}]}
{"molecule": "CCC12CCN(CC3(O)CC3)C(Cc3ccc(O)cc31)C2(C)C", "note": "(centres unmarked) [[^3H]bremazocine]", "values": [{"measurement": "specific binding of radiolabelled opioid to HHV-6B U51 membranes", "setting": "HHV-6B U51 [5]", "value": "did not specifically bind"}]}
{"molecule": "Oc1ccc2c3c1O[C@H]1c4[nH]c5ccccc5c4C[C@@]4(O)[C@@H](C2)N(CC2CC2)CC[C@]314", "note": "[[^3H]naltrindole]", "values": [{"measurement": "specific binding of radiolabelled opioid to HHV-6B U51 membranes", "setting": "HHV-6B U51 [5]", "value": "did not specifically bind"}]}
{"molecule": "CCL2: chemokine", "values": [{"measurement": "action at U51", "setting": "U51", "value": "agonists"}]}
{"molecule": "CCL11: chemokine", "values": [{"measurement": "action at U51", "setting": "U51", "value": "agonists"}]}
{"molecule": "DPDPE", "values": [{"measurement": "% Control [35S]GTPγS binding ± SEM, Native", "setting": "[1]", "value": "104 ± 1", "unit": "%"}, {"measurement": "% Control [35S]GTPγS binding ± SEM, U51 (+Tet)", "setting": "HHV-6B U51 [2]", "value": "99 ± 2", "unit": "%"}, {"measurement": "% Control [35S]GTPγS binding ± SEM, U51 (Unind)", "setting": "HHV-6B U51 [2]", "value": "96 ± 1", "unit": "%"}, {"measurement": "Control Cell Emax, % Control [35S]GTPγS binding ± SEM", "setting": "[3]", "value": "254 ± 16", "unit": "%"}]}
{"molecule": "Interleukin-8: chemokine ligand", "values": [{"measurement": "% Control [35S]GTPγS binding ± SEM, Native", "setting": "[1]", "value": "101 ± 5", "unit": "%"}, {"measurement": "% Control [35S]GTPγS binding ± SEM, U51 (+Tet)", "setting": "HHV-6B U51 [6]", "value": "96 ± 3", "unit": "%"}, {"measurement": "% Control [35S]GTPγS binding ± SEM, U51 (Unind)", "setting": "HHV-6B U51 [6]", "value": "96 ± 2", "unit": "%"}]}
{"molecule": "MCP-3: chemokine ligand", "values": [{"measurement": "% Control [35S]GTPγS binding ± SEM, Native", "setting": "[1]", "value": "97 ± 3", "unit": "%"}, {"measurement": "% Control [35S]GTPγS binding ± SEM, U51 (+Tet)", "setting": "HHV-6B U51 [6]", "value": "103 ± 2", "unit": "%"}, {"measurement": "% Control [35S]GTPγS binding ± SEM, U51 (Unind)", "setting": "HHV-6B U51 [6]", "value": "109 ± 9", "unit": "%"}]}
{"molecule": "RANTES: β-chemokine (CC-chemokine)", "values": [{"measurement": "% Control [35S]GTPγS binding ± SEM, Native", "setting": "[1]", "value": "101 ± 2", "unit": "%"}, {"measurement": "% Control [35S]GTPγS binding ± SEM, U51 (+Tet)", "setting": "HHV-6B U51 [6]", "value": "104 ± 2", "unit": "%"}, {"measurement": "% Control [35S]GTPγS binding ± SEM, U51 (Unind)", "setting": "HHV-6B U51 [6]", "value": "111 ± 1", "unit": "%"}, {"measurement": "binding affinity to HHV-6 U51", "setting": "HHV-6 U51", "value": "nanomolar affinity"}, {"measurement": "action at U51", "setting": "U51", "value": "agonists"}]}
{"molecule": "US28: human cytomegalovirus 7-transmembrane protein, expressed from plasmid as positive control", "values": [{"measurement": "cell fusion activity compared to cells transfected with VSV-G alone", "setting": "HEK293 cells", "value": "~3", "unit": "fold"}]}
{"molecule": "kappa opioid receptor: rat kappa opioid receptor expression plasmid, negative control", "values": [{"measurement": "cell fusion activity compared to cells transfected with VSV-G alone", "setting": "HEK293 cells", "value": "no effect"}]}
{"molecule": "B1", "values": [{"measurement": "% Control [35S]GTPγS binding ± SEM, Native", "setting": "[1]", "value": "97 ± 2", "unit": "%"}, {"measurement": "% Control [35S]GTPγS binding ± SEM, U51 (+Tet)", "setting": "HHV-6B U51 [6]", "value": "104 ± 7", "unit": "%"}, {"measurement": "% Control [35S]GTPγS binding ± SEM, U51 (Unind)", "setting": "HHV-6B U51 [6]", "value": "99 ± 3", "unit": "%"}]}
